Data from publication PMC7703563 (Proceedings of the National Academy of Sciences of the …, 2020).
One block for each molecule: values may come before it.

Experiments:
[1] = target: T1, MANEA-Δ97 (human endo-α-1,2-mannosidase catalytic domain, GH99) (Homo sapiens, UniProt Q5SRI9); assay: X-ray crystal structure; format: binding; conditions: ternary complex with GlcIFG; +1/+2 subsites
T1 sequence (Q5SRI9 98-462): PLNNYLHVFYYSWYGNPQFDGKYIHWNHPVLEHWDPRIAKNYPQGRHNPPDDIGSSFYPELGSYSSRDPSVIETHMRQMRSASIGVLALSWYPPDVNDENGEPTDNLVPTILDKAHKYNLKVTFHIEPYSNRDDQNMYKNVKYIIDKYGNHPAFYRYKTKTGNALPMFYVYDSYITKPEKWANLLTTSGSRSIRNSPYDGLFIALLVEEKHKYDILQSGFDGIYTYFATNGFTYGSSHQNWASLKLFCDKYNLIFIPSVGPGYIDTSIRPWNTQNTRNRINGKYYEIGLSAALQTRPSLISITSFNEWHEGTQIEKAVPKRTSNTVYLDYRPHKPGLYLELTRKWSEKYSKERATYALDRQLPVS

[2] = target: T1, MANEA-Δ97 (human endo-α-1,2-mannosidase catalytic domain, GH99); assay: isothermal titration calorimetry; format: binding
purified protein = substrate: CO[C@H]1O[C@H](CO)[C@@H](O)[C@H](O)[C@@H]1O[C@H]1O[C@H](CO)[C@@H](O)[C@H](O)[C@@H]1O[C@H]1O[C@H](CO)[C@@H](O)[C@H](O[C@H]2O[C@H](CO)[C@@H](O)[C@H](O)[C@H]2O)[C@@H]1O; assay: purified protein; conditions: α-mannosidase-coupled release of mannose

Molecule: OC[C@H]1O[C@H](O[C@@H]2C(O)O[C@H](CO)[C@@H](O)[C@@H]2O)[C@@H](O)[C@@H](O)[C@@H]1O (stereo partly drawn) [α-1,2-mannobiose]
X-ray crystal structure [1]: a ternary complex with GlcIFG and α-1,2-mannobiose

Kd [2]: 1020 nM
Molecule: OC[C@H]1NC[C@@H](O)[C@@H](O[C@H]2O[C@H](CO)[C@@H](O)[C@H](O)[C@H]2O)[C@@H]1O [GlcDMJ]

B1: MANEA-Δ97 (human endo-α-1,2-mannosidase catalytic domain, GH99) (Homo sapiens) (protein)
chain: T1 sequence (Q5SRI9 98-462)
Km (purified protein): 426 ± 33 µM | kcat (purified protein): 0.462 ± 0.0167 s⁻¹
